Among the data in US8586747B2, “3,3-dimethyl tetrahydroquinoline derivatives” (Hoffmann-La Roche Inc., priority 2010, dated 2013) are E30 values, retold here.

The test system of the assay is AMP-activated protein kinase (AMPK). Kind of assay: ADP Quest assay for AMPK activators. In kind it is biochemical. Further details: key: fold AMPK activation with vs without activator at 30 µM. As to conditions: fold of AMPK activation to phosphorylate SAMS peptide without and with an activator at the concentration of 30 µM. The protocol: ADP Quest™ Assay for AMPK Activators
This method evaluates AMP-activated protein kinase (AMPK) activity through detecting the accumulation of ADP product using an ADP Quest kit and determining the E30 values of the small molecular AMPK activators. ADP Quest kit (DiscoveRx, Fremont, Calif.) is stored at −20° C. before use. Before an experiment, thaw the kit (include assay buffer, ADP standard solution, reagent A and reagent B) and equilibrate to room temperature. Dispense the ADP Quest reagents into single-use aliquots and store at −20° C. The compound concentrations typically range from 0 µM to 100 µM by 2-fold dilution. AMP concentrations range from […] to 1 mM as the reference control. In an assay, thaw and equilibrate the assay buffer, reagent A and reagent B to room temperature for 30 minutes prior to use. Mix ATP, SAMS peptide substrate and compound, and place them into the 384-well assay plate. Add reagent A and B based on the assay kit protocol. Incubate the assay plate at room temperature for 30 minutes after addition the mixture followed by the addition of AMPK protein (Invitrogen, CA) to initiate the AMPK phosphorylation reaction. At the same time, reactions with AMPK activator AMP in the absence of enzyme is included as blank control. The reaction fluorescence signal is monitored and recorded on Envision in kinetic mode with the excitation wavelength of 530 nm and emission wavelength of 590 nm. The E30 value, defined as the fold of AMPK activation to phosphorylate SAMS peptide without and with an activator at the concentration of 30 µM, is calculated and analyzed using Prism 5.0.
On to `CC(C)C1COC(=O)N1c1cccc(C2Nc3ccc(C(=O)O)cc3CC2(C)C)c1` (stereo in doubt) [Example 119, 2-[3-((S)-4-Isopropyl-2-oxo-oxazolidin-3-yl)-phenyl]-3,3-dimethyl-1,2,3,4-tetrahydro-quinoline-6-carboxylic acid], for which the E30 was found to be 1.5.

`CC1(C)Cc2cc(C(=O)O)ccc2NC1c1cccc(N2C(=O)OCC2Cc2ccccc2)c1` (stereo in doubt) [Example 124, 2-[3-((S)-4-Benzyl-2-oxo-oxazolidin-3-yl)-phenyl]-3,3-dimethyl-1,2,3,4-tetrahydro-quinoline-6-carboxylic acid]: the E30 stood at 1.34.

As to `CC1(C)Cc2cc(C(=O)O)ccc2NC1c1cccc(N2C(=O)OCC2Cc2ccccc2)c1` (stereo in doubt) [Example 127, 2-[3-((R)4-Benzyl-2-oxo-oxazolidin-3-yl)-phenyl]-3,3-dimethyl-1,2,3,4-tetrahydro-quinoline-6-carboxylic acid], the E30 came to 1.26. Then `CC1(C)Cc2cc(C(=O)O)ccc2NC1c1cccc(NC(=O)NCc2ccccc2)c1` (stereo not drawn) [Example 1, 2-[3-(3-Benzyl-ureido)-phenyl]-3,3-dimethyl-1,2,3,4-tetrahydro-quinoline-6-carboxylic acid], with 1.43; and `CC1(C)Cc2cc(Cl)cc(C(=O)NS(=O)(=O)C3CC3)c2NC1c1cccc(NC(=O)c2cnccn2)c1` (stereo not drawn) [Example 2, Pyrazine-2-carboxylic acid [3-(6-chloro-8-cyclopropanesulfonylaminocarbonyl-3,3-dimethyl-1,2,3,4-tetrahydro-quinolin-2-yl)-phenyl]-amide], with 1.42. Molecule `CC1(C)Cc2cc(C(=O)O)ccc2NC1c1cccc(NC(=O)c2cccnc2)c1` (stereo not drawn) [Example 3, 3,3-Dimethyl-2-{3-[(pyridine-3-carbonyl)-amino]-phenyl}-1,2,3,4-tetrahydro-quinoline-6-carboxylic acid] yielded an E30 of 1.33.

`CC1(C)Cc2cc(C(=O)O)ccc2NC1c1cccc(NC(=O)c2ccccn2)c1` (stereo not drawn) [Example 4, 3,3-Dimethyl-2-{3-[(pyridine-2-carbonyl)-amino]-phenyl}-1,2,3,4-tetrahydro-quinoline-6-carboxylic acid] came in with an E30 of 1.33. Then `CC1(C)Cc2cc(C(=O)O)ccc2NC1c1cccc(NC(=O)c2cnccn2)c1` (stereo not drawn) [Example 5, 3,3-Dimethyl-2-{3-[(pyrazine-2-carbonyl)-amino]-phenyl}-1,2,3,4-tetrahydro-quinoline-6-carboxylic acid], with 1.32; and `CC1(C)Cc2cc(C(=O)O)ccc2NC1c1cccc(NC(=O)c2cccc(F)c2)c1` (stereo not drawn) [Example 6, 2-[3-(3-fluoro-benzoylamino)-phenyl]-3,3-dimethyl-1,2,3,4-tetrahydro-quinoline-6-carboxylic acid], with 1.31. For `CC1(C)Cc2cc(C(=O)O)ccc2NC1c1cccc(C(=O)O)c1` (stereo not drawn) [Example 7, 2-(3-Carbonyl-phenyl)-3,3-dimethyl-1,2,3,4-tetrahydro-quinoline-6-carboxylic acid], the E30 stood at 1.31. Turning to `CC1(C)Cc2cc(C(=O)NS(C)(=O)=O)ccc2NC1c1cccc(N2CCOCC2)c1` (stereo not drawn) [Example 8, N-[3,3-dimethyl-2-(3-morpholin-4-yl-phenyl)-1,2,3,4-tetrahydro-quinoline-6-carbonyl]-methanesulfonamide], the E30 was found to be 1.29. Regarding `CC1(C)Cc2cc(C(=O)NS(C)(=O)=O)ccc2NC1c1cccc(C(=O)Nc2ccccc2)c1` (stereo not drawn) [Example 9, 3-(6-Methanesulfonylaminocarbonyl-3,3-dimethyl-1,2,3,4-tetrahydro-quinolin-2-yl)-N-phenyl-benzamide], the E30 worked out at 1.28. In turn, `CC(C)S(=O)(=O)NC(=O)c1ccc2c(c1)CC(C)(C)C(c1cccc(N3CCOCC3)c1)N2` (stereo not drawn) [Example 10, Propane-2-sulfonic acid [3,3-dimethyl-2-(3-morpholin-4-yl-phenyl)-1,2,3,4-tetrahydro-quinoline-6-carbonyl]-amide] had an E30 of 1.27.

`CC1(C)Cc2cc(C(=O)NS(C)(=O)=O)ccc2NC1c1cccc(NC(=O)c2cnccn2)c1` (stereo not drawn) [Example 11, Pyrazine-2-carboxylic acid [3-(6-methanesulfonylaminocarbonyl-3,3-dimethyl-1,2,3,4-tetrahydro-quinolin-2-yl)-phenyl]-amide] gave an E30 of 1.25. As to `CC1(C)Cc2cc(C(=O)O)ccc2NC1c1cccc(NC(=O)c2ccccc2)c1` (stereo not drawn) [Example 12, 2-(3-Benzoylamino-phenyl)-3,3-dimethyl-1,2,3,4-tetrahydro-quinoline-6-carboxylic acid], the E30 was 1.22. `CC1(C)Cc2cc(C(=O)O)ccc2NC1c1cccc(NC(=O)Nc2cccc(F)c2)c1` (stereo not drawn) [Example 13, 2-{3-[3-(3-Fluoro-phenyl)-ureido]-phenyl}-3,3-dimethyl-1,2,3,4-tetrahydro-quinoline-6-carboxylic acid] had an E30 of 1.21. Then `CC1(C)Cc2cc(C(=O)O)ccc2NC1c1cccc(C(=O)Nc2ccccc2)c1` (stereo not drawn) [Example 14, 3,3-Dimethyl-2-(3-phenylcarbamoyl-phenyl)-1,2,3,4-tetrahydro-quinoline-6-carboxylic acid], with 1.2; and `CC(C)(Nc1cccc(C2Nc3ccc(C(=O)O)cc3CC2(C)C)c1)C(=O)O` (stereo not drawn) [Example 15, 2-[3-(1-Carboxy-1-methyl-ethylamino)-phenyl]-3,3-dimethyl-1,2,3,4-tetrahydro-quinoline-6-carboxylic acid], with 3.59. `CN1CCN(c2cccc(C3Nc4ccc(C(=O)O)cc4CC3(C)C)c2)C1=O` (stereo not drawn) [Example 16, 3,3-Dimethyl-2-[3-(3-methyl-2-oxo-imidazolidin-1-yl)-phenyl]-1,2,3,4-tetrahydro-quinoline-6-carboxylic acid] showed an E30 of 1.59. In turn, `CC1(C)Cc2cc(C(=O)O)ccc2NC1c1cccc(N2CCNC2=O)c1` (stereo not drawn) [Example 17, 3,3-Dimethyl-2-[3-(2-oxo-imidazolidin-1-yl)-phenyl]-1,2,3,4-tetrahydro-quinoline-6-carboxylic acid] gave an E30 of 1.45. For the molecule `CC1(C)Cc2cc(C(=O)O)ccc2NC1c1cccc(N2CC(=O)NCC2=O)c1` (stereo not drawn) [Example 18, 2-[3-(2,5-Dioxo-piperazin-1-yl)-phenyl]-3,3-dimethyl-1,2,3,4-tetrahydro-quinoline-6-carboxylic acid], the E30 was 1.41. As for `CC1(C)Cc2cc(C(=O)O)ccc2NC1c1cccc(N2CC(=O)NC2=O)c1` (stereo not drawn) [Example 19, 2-[3-(2,4-Dioxo-imidazolidine-1-yl)-phenyl]-3,3-dimethyl-1,2,3,4-tetrahydro-quinoline-6-carboxylic acid], the E30 is 1.38. Then `CC1(C)Cc2cc(C(=O)O)ccc2NC1c1cccc(NC(=O)c2ccc(F)cc2)c1` (stereo not drawn) [Example 20, 2-[3-(4-Fluoro-benzoylamino)-phenyl]-3,3-dimethyl-1,2,3,4-tetrahydro-quinoline-6-carboxylic acid], with 1.25; and `CC1(C)Cc2cc(C(=O)O)ccc2NC1c1cccc(NC(=O)N2CCOCC2)c1` (stereo not drawn) [Example 21, 3,3-Dimethyl-2-{3-[(morpholine-4-carbonyl)-amino]-phenyl}-1,2,3,4-tetrahydro-quinoline-6-carboxylic acid], with 1.42; and `CC1(C)Cc2cc(C(=O)O)ccc2NC1c1cccc(NC(=O)N2CCCCC2)c1` (stereo not drawn) [Example 22, 3,3-Dimethyl-2-{3-[(piperidine-1-carbonyl)-amino]-phenyl}-1,2,3,4-tetrahydro-quinoline-6-carboxylic acid], with 1.39. Take `CN(CC(=O)O)C(=O)c1ccc2c(c1)CC(C)(C)C(c1cccc(N3CCOCC3)c1)N2` (stereo not drawn) [Example 23, {[3,3-Dimethyl-2-(3-morpholin-4-yl-phenyl)-1,2,3,4-tetrahydro-quinoline-6-carboxyl]-methyl-amino}-acetic acid]: the E30 came to 1.32. For the molecule `CC1(C)Cc2cc(C(=O)N3CCC[C@H]3C(=O)O)ccc2NC1c1cccc(N2CCOCC2)c1` (stereo partly drawn) [Example 24, 1-[3,3-Dimethyl-2-(3-morpholin-4-yl-phenyl)-1,2,3,4-tetrahydro-quinoline-6-carboxyl]-pyrrolidine-2-carboxylic acid], the E30 is 1.3. Then `CN(C)S(=O)(=O)Nc1cccc(C2Nc3ccc(C(=O)O)cc3CC2(C)C)c1` (stereo not drawn) [Example 25, 2-(3-(N,N-dimethylsulfamoylamino)phenyl)-3,3-dimethyl-1,2,3,4-tetrahydroquinoline-6-carboxylic acid], with 1.29; and `CC1(C)Cc2cc(C(=O)O)ccc2NC1c1cccc(N2CCN(c3ccccc3)C2=O)c1` (stereo not drawn) [Example 26, 3,3-Dimethyl-2-[3-(2-oxo-3-phenyl-imidazolidin-1-yl)-phenyl]-1,2,3,4-tetrahydro-quinoline-6-carboxylic acid], with 1.27.

On to `CN1CCN(C(=O)Nc2cccc(C3Nc4ccc(C(=O)O)cc4CC3(C)C)c2)CC1` (stereo not drawn) [Example 27, 3,3-Dimethyl-2-{3-[(4-methyl-piperazine-1-carbonyl)-amino]-phenyl}-1,2,3,4-tetrahydro-quinoline-6-carboxylic acid], for which the E30 was 1.24.
